Results published in ChEMBL document CHEMBL1201862, “PubChem BioAssay data set” (2004).
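Dose response: 5 concentrations. Exposure: 48 h. Format: 96-well plates. Endpoint: linear interpolation; highest concentration if not reached. GI50 is the concentration that inhibits growth by half.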 The source made the active and inactive calls. Rule as the data show it: active = GI50 up to about 1.1 µM and inactive = higher.

Experiments:
Test in all cases: NCI-60 cell line screen, 48 h
ACHN = system: ACHN
CCRF-CEM = system: CCRF-CEM
COLO 205 = system: COLO 205
EKVX = system: EKVX
HCT-116 = system: HCT-116
KM12 = system: KM12
MDA-MB-231 = system: MDA-MB-231
MDA-N = system: MDA-N
NCI-H226 = system: NCI-H226
NCI-H522 = system: NCI-H522
OVCAR-4 = system: OVCAR-4
OVCAR-5 = system: OVCAR-5
SNB-75 = system: SNB-75
SR = system: SR
SW-620 = system: SW-620
TK-10 = system: TK-10
UACC-257 = system: UACC-257
DU-145 = system: DU-145
HL-60 = system: HL-60

SMILES | GI50 (ACHN) | GI50 (CCRF-CEM) | GI50 (COLO 205) | GI50 (EKVX) | GI50 (HCT-116) | GI50 (KM12) | GI50 (MDA-MB-231) | GI50 (MDA-N) | GI50 (NCI-H226) | GI50 (NCI-H522) | GI50 (OVCAR-4) | GI50 (OVCAR-5) | GI50 (SNB-75) | GI50 (SR) | GI50 (SW-620) | GI50 (TK-10) | GI50 (UACC-257) | GI50 (DU-145) | GI50 (HL-60)
CC(=O)Nc1ccc(Nc2cc(=O)n(C)c(=O)[nH]2)cc1 | > 100 µM (inactive) | > 100 µM (inactive) | > 100 µM (inactive) | > 100 µM (inactive) | > 100 µM (inactive) | > 100 µM (inactive) | > 100 µM (inactive) | > 100 µM (inactive) | > 100 µM (inactive) | > 100 µM (inactive) | > 100 µM (inactive) | > 100 µM (inactive) | > 100 µM (inactive) | > 100 µM (inactive) | > 100 µM (inactive) | > 100 µM (inactive) | > 100 µM (inactive) | – | –
CCOC(=O)/C(C#N)=C(/NNc1ccccc1)c1ccncc1C(=O)O | > 21.5 µM (inactive) | > 38.2 µM (inactive) | 4.37 µM (inactive) | > 100 µM (inactive) | > 100 µM (inactive) | 3.4 µM (inactive) | > 100 µM (inactive) | > 40.8 µM (inactive) | > 100 µM (inactive) | > 100 µM (inactive) | > 100 µM (inactive) | > 72.1 µM (inactive) | > 100 µM (inactive) | – | 3.27 µM (inactive) | > 100 µM (inactive) | 26.2 µM (inactive) | > 42.7 µM (inactive) | 2.75 µM (inactive)
Oc1ccc2c(c1)OCC(O)(c1ccccc1O)C2 (stereo not drawn) | > 100 µM (inactive) | > 100 µM (inactive) | > 100 µM (inactive) | > 100 µM (inactive) | > 100 µM (inactive) | > 100 µM (inactive) | > 100 µM (inactive) | > 100 µM (inactive) | > 100 µM (inactive) | – | > 100 µM (inactive) | > 100 µM (inactive) | 61.4 µM (inactive) | – | > 100 µM (inactive) | > 100 µM (inactive) | > 100 µM (inactive) | > 100 µM (inactive) | > 100 µM (inactive)
NS(=O)(=O)c1nnc(NS(=O)(=O)c2ccccc2[N+](=O)[O-])s1 | > 100 µM (inactive) | – | > 100 µM (inactive) | > 100 µM (inactive) | > 100 µM (inactive) | > 100 µM (inactive) | > 100 µM (inactive) | – | > 100 µM (inactive) | > 100 µM (inactive) | > 100 µM (inactive) | > 100 µM (inactive) | > 100 µM (inactive) | > 100 µM (inactive) | > 100 µM (inactive) | > 100 µM (inactive) | – | > 100 µM (inactive) | > 100 µM (inactive)
CC(=O)N1C(Nc2ccccc2)CCN1c1ccccc1 (stereo not drawn) | 4.22 µM (inactive) | > 10 µM (inactive) | > 10 µM (inactive) | > 10 µM (inactive) | > 10 µM (inactive) | – | > 10 µM (inactive) | – | > 10 µM (inactive) | > 10 µM (inactive) | > 10 µM (inactive) | > 10 µM (inactive) | > 10 µM (inactive) | > 10 µM (inactive) | 5.64 µM (inactive) | > 10 µM (inactive) | > 10 µM (inactive) | > 10 µM (inactive) | 5.08 µM (inactive)
O=C(O)c1ccc2c(c1)Cc1cc([N+](=O)[O-])ccc1-2 | > 100 µM (inactive) | 21.6 µM (inactive) | > 100 µM (inactive) | > 100 µM (inactive) | > 100 µM (inactive) | > 100 µM (inactive) | > 100 µM (inactive) | – | 52.1 µM (inactive) | > 100 µM (inactive) | > 100 µM (inactive) | > 100 µM (inactive) | > 100 µM (inactive) | 86.1 µM (inactive) | > 100 µM (inactive) | 61 µM (inactive) | 44.1 µM (inactive) | > 100 µM (inactive) | > 100 µM (inactive)
COc1ccc(/N=N/C(C(=O)c2ccccc2)C(=O)c2ccccc2)cc1 | 24.7 µM (inactive) | 8 µM (inactive) | 42.1 µM (inactive) | 21.3 µM (inactive) | 13.6 µM (inactive) | 27 µM (inactive) | – | – | 8.67 µM (inactive) | 16.2 µM (inactive) | 30.8 µM (inactive) | 33.8 µM (inactive) | 20.6 µM (inactive) | – | 19.3 µM (inactive) | 52 µM (inactive) | 24.5 µM (inactive) | – | 10.4 µM (inactive)
NC(=O)NC(=O)Nc1ccc(Br)cc1 | > 9.62 µM (inactive) | > 4.65 µM (inactive) | 11.3 µM (inactive) | 14.7 µM (inactive) | 17.3 µM (inactive) | 21.8 µM (inactive) | > 16.6 µM (inactive) | 50.9 µM (inactive) | 21.5 µM (inactive) | > 25.9 µM (inactive) | > 24.3 µM (inactive) | > 21.1 µM (inactive) | 3.19 µM (inactive) | – | > 11.5 µM (inactive) | > 35.9 µM (inactive) | > 27.1 µM (inactive) | > 100 µM (inactive) | 4.34 µM (inactive)
Cc1cc(S(=O)(=O)Nc2nc3cc(-c4ccc(Cl)cc4)sc3c(=O)n2N)c(S)cc1Cl | 26.5 µM (inactive) | 27.2 µM (inactive) | 17 µM (inactive) | 82.8 µM (inactive) | 40.3 µM (inactive) | 34.2 µM (inactive) | 56.6 µM (inactive) | 53.8 µM (inactive) | – | 62.4 µM (inactive) | 64.4 µM (inactive) | 44.2 µM (inactive) | > 100 µM (inactive) | – | 39.4 µM (inactive) | 73.6 µM (inactive) | 65 µM (inactive) | 37.2 µM (inactive) | –
CC(C)(C)OC/C=C(/CO)[C@@H]1C=C[C@H](O)C1 | > 100 µM (inactive) | > 100 µM (inactive) | > 100 µM (inactive) | > 100 µM (inactive) | > 100 µM (inactive) | > 100 µM (inactive) | > 100 µM (inactive) | > 100 µM (inactive) | > 100 µM (inactive) | – | > 100 µM (inactive) | > 100 µM (inactive) | > 100 µM (inactive) | – | > 100 µM (inactive) | – | > 100 µM (inactive) | – | –
COC(=O)c1ccc2c(c1)CC1(C2)Cc2cc3c(cc2C1=O)CCC3 (stereo not drawn) | 34.9 µM (inactive) | 15 µM (inactive) | 14.8 µM (inactive) | 61.2 µM (inactive) | 29.6 µM (inactive) | 9.46 µM (inactive) | 36.4 µM (inactive) | 21.1 µM (inactive) | – | 39.6 µM (inactive) | 24.7 µM (inactive) | 84.1 µM (inactive) | 21.6 µM (inactive) | – | 60.4 µM (inactive) | 54.1 µM (inactive) | 18.3 µM (inactive) | 57.7 µM (inactive) | 16.8 µM (inactive)
c1cc(-c2ncc(-c3ccc4c(c3)CCCO4)o2)ccn1 | 22.3 µM (inactive) | 4.83 µM (inactive) | 5.42 µM (inactive) | 18.6 µM (inactive) | 10.7 µM (inactive) | – | 17.7 µM (inactive) | 2.48 µM (inactive) | 21 µM (inactive) | 3.78 µM (inactive) | 18 µM (inactive) | 42.2 µM (inactive) | 2.08 µM (inactive) | – | – | 7.43 µM (inactive) | 13.2 µM (inactive) | 12 µM (inactive) | 2.42 µM (inactive)
O=C(Nc1ccc(Cl)cc1)C(=O)C1=C(O)c2ccccc2OC1 | > 100 µM (inactive) | > 100 µM (inactive) | > 100 µM (inactive) | > 100 µM (inactive) | > 100 µM (inactive) | 80.5 µM (inactive) | > 100 µM (inactive) | > 100 µM (inactive) | > 100 µM (inactive) | > 100 µM (inactive) | > 100 µM (inactive) | > 100 µM (inactive) | 33.1 µM (inactive) | – | > 100 µM (inactive) | > 100 µM (inactive) | > 100 µM (inactive) | > 100 µM (inactive) | > 100 µM (inactive)
CC1(N2CCOCC2)CC2C(=[N+]1[O-])CCC/C2=N/O (stereo not drawn) | > 100 µM (inactive) | > 100 µM (inactive) | – | > 100 µM (inactive) | > 100 µM (inactive) | > 100 µM (inactive) | > 100 µM (inactive) | > 100 µM (inactive) | > 100 µM (inactive) | > 100 µM (inactive) | > 100 µM (inactive) | > 100 µM (inactive) | 0.334 µM (active) | > 100 µM (inactive) | > 100 µM (inactive) | > 100 µM (inactive) | > 100 µM (inactive) | – | –
S=C(S)N1CCN(c2ccc(Cl)c(Cl)c2)CC1 | 37.2 µM (inactive) | 13 µM (inactive) | 18.2 µM (inactive) | 12.9 µM (inactive) | 13.9 µM (inactive) | 16.3 µM (inactive) | 21.3 µM (inactive) | 19.3 µM (inactive) | – | 21.6 µM (inactive) | – | 29.9 µM (inactive) | 20.7 µM (inactive) | – | 21.7 µM (inactive) | 58.6 µM (inactive) | > 10 µM (inactive) | 25.9 µM (inactive) | 20.9 µM (inactive)
Nc1nc(N)c2cc(S(=O)(=O)c3ccc4ccccc4c3)ccc2n1 | 2.74 µM (inactive) | – | – | 8.13 µM (inactive) | 0.495 µM (active) | 9.95 µM (inactive) | 1.62 µM (inactive) | – | – | 3.9 µM (inactive) | – | > 100 µM (inactive) | 2.86 µM (inactive) | – | – | > 100 µM (inactive) | 0.142 µM (active) | – | > 100 µM (inactive)
O=C1Cc2c([nH]c3ccc(Br)cc23)-c2cc(Br)ccc2N1 | > 100 µM (inactive) | > 100 µM (inactive) | > 100 µM (inactive) | > 100 µM (inactive) | – | > 100 µM (inactive) | > 100 µM (inactive) | – | > 100 µM (inactive) | – | > 100 µM (inactive) | > 100 µM (inactive) | – | – | > 100 µM (inactive) | > 100 µM (inactive) | > 100 µM (inactive) | > 100 µM (inactive) | –
